Patent US9732075B2, “Benzimidazole-proline derivatives” (IDORSIA PHARMACEUTICALS LTD, priority 2012, dated 2017)
Values belong to the compound of their own block, whether it stands above or below them.

Columns and labels:
human orexin-1 receptor = human orexin-1 receptor (Homo sapiens (Human), UniProt O43613); experiment: In vitro assay: intracellular calcium measurements (FLIPR), antagonistic activity; format: cell-based; details: CHO cells expressing human orexin-1 receptor, orexin-A agonist, geometric mean, read-out: IC50 Ox1
Sequence of human orexin-1 receptor (O43613 whole entry): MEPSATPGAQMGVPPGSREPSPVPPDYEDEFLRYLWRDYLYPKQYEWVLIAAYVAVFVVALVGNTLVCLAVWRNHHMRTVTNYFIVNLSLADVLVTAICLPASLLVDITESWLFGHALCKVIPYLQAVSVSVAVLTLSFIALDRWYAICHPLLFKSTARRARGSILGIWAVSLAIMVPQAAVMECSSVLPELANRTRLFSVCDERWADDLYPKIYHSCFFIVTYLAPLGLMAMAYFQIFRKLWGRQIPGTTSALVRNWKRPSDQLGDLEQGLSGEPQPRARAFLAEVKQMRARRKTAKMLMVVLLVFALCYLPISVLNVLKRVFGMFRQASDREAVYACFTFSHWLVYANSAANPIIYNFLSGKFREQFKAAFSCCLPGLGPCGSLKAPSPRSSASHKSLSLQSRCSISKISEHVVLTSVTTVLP
Procedure, shortened: (§1)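 Dye-loaded CHO cells expressing either human orexin receptor are exposed to test antagonist for 120 min, then stimulated with orexin-A at 3 nM.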

human orexin-2 receptor = human orexin-2 receptor (Homo sapiens (Human), UniProt O43614); experiment: as above; format: cell-based; details: CHO cells expressing human orexin-2 receptor, orexin-A agonist, geometric mean, read-out: IC50 Ox2
Sequence of human orexin-2 receptor (O43614 whole entry): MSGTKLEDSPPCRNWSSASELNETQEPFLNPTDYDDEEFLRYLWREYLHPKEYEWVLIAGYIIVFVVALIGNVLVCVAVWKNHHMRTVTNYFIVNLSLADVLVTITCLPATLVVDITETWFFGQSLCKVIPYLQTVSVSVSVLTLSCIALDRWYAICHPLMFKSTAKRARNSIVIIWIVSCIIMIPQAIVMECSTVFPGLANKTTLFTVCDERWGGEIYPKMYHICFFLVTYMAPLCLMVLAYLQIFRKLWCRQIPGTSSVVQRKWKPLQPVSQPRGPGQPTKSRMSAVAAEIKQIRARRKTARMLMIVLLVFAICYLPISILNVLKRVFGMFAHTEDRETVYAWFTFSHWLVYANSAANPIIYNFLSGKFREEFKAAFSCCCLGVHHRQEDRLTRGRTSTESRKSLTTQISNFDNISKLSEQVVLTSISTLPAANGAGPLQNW
Procedure, shortened: as §1

[1] = Measurement of brain and systemic concentration after oral administration; format: in vivo; details: 3 h after oral administration (100 mg/kg), male wistar rats, n=3
Description: Measurement of Brain and Systemic Concentration after Oral Administration:
In order to assess brain penetration, the concentration of the compound is measured in plasma ([P]), and brain ([B]), sampled 3 h (or at different time points) following oral administration (e.g. 100 mg/kg) to male wistar rats. The compounds are formulated e.g. in 100% PEG 400. Samples are collected in the same animal at the same time point (+/−5 min).
Blood is sampled from the vena cava caudalis into containers with EDTA as anticoagulant and centrifuged to yield plasma. Brain is sampled after cardiac perfusion of 10 mL NaCl 0.9% and homogenized into one volume of cold phosphate buffer (pH 7.4). All samples are extracted with MeOH and analyzed by LC-MS/MS. Concentrations are determined with the help of calibration curves.

Wistar rats = experiment: Sedative effects: EEG, EMG and behavioural indices of alertness recorded by radiotelemetry in vivo; details: 30 mg/kg po; effects analyzed over 6 hours; compared to vehicle controls
Description: Sedative Effects: EEG, EMG and Behavioural Indices of Alertness Recorded by Radiotelemetry In Vivo in Wistar Rats.
Electroencephalography (EEG) and Electromyography (EMG) signals were measured by telemetry using TL11M2-F20-EET miniature radiotelemetric implants (Data Science Int.) with two pairs of differential leads.
Surgical implantation was performed under general anesthesia with Ketamin/Xylazin, for cranial placement of one differential pair of EEG electrodes and one pair of EMG leads inserted in either side of the muscles of the neck. After surgery, rats recovered in a thermoregulated chamber and received analgesic treatment with subcutaneous buprenorphine twice a day for 2 d. They were then housed individually and allowed to recover for a minimum of 2 weeks. Thereafter, rats—in their home cage—were placed in a ventilated sound-attenuating box, on a 12-h light/12-h dark cycle, for acclimatization before continuous EEG/EMG recordings started. The telemetric technology that we used in this study allows accurate and stress-free acquisition of biosignals in rats placed in their familiar home cage environment, with no recording leads restricting their movements. Variables analyzed included four different stages of vigilance and sleep, spontaneous activity in the home cage and body temperature. Sleep and wake stages were evaluated using a rodent scoring software (Somnologica Science) directly processing electrical biosignals on 10 s contiguous epochs. The scoring is based on frequency estimation for EEG and amplitude discrimination for EMG and locomotor activity. Using these measurements, the software determines the probability that all components within each epoch best represent active waking (AW), quiet waking (QW), non-REM-sleep (NREM) or REM-sleep (REM). The percentage of total time spent in AW, QW, NREM- and REM-sleep was calculated per 12 h light or dark period. The latency to the onset of the first significant NREM- and REM-sleep episodes and the frequency and duration of those episodes were also calculated. AW, QW, NREM- and REM-sleep, home cage activity and body temperature were measured at baseline for at least one total circadian cycle (12 h-night, 12 h-day) before a test compound was administered. […] All variables were subsequently recorded for 12 h following administration of the orexin receptor antagonist.

rodents [2] = details: cited from earlier work
rodents [3] = details: repeated amphetamine administration; cited from earlier work
humans = details: cited from earlier work
rat [4] = details: cited from earlier work
rats [5] = details: cited from earlier work
rat [6] = details: cited from earlier work; remark: listed apart in the source
rats [7] = details: rats treated with the compound; cited from earlier work
[8] = system: amyloid precursor protein transgenic mice; details: after acute sleep restriction; cited from earlier work
mouse = details: administered chronically; cited from earlier work
rats [9] = details: fasted hungry rats exposed to food odors; cited from earlier work
rat [10] = details: cited from earlier work; remark: listed apart in the source

Structure (SMILES): Cc1ccc(-c2ncccn2)c(C(=O)N2CCC[C@@]2(C)c2nc3cc(Br)cc(C)c3[nH]2)c1 [Example 5.277]
IC50 (human orexin-1 receptor): 6 nM | IC50 (human orexin-2 receptor): 21 nM | concentration of the compound in brain [B] [1]: 5880 ng/g | concentration of the compound in plasma [P] [1]: 3560 ng/mL | effect on NREM sleep (Wistar rats): +21% | effect on REM sleep (Wistar rats): +52% | effect on active wake (Wistar rats): −22% | effect on home cage activity (Wistar rats): −42%

Structure (SMILES): Cn1c(SCC(=O)N2CCC[C@H]2C(=O)Nc2ccccc2-c2ccccc2)nc2ccccc21 [N-biphenyl-2-yl-1-{[(1-methyl-1H-benzimidazol-2-yl)sulfanyl]acetyl}-L-prolinamide]
nicotine-reinstatement for a conditioned reinforcer (rodents [2]): inhibited | behavioral (locomotor sensitization) and molecular (transcriptional responses) changes (rodents [3]): reduced

Structure (SMILES): CNC(=O)[C@@H](c1ccccc1)N1CCc2cc(OC)c(OC)cc2[C@@H]1CCc1ccc(C(F)(F)F)cc1 [(2R)-2-{(1S)-6,7-dimethoxy-1-[2-(4-trifluoromethyl-phenyl)-ethyl]-3,4-dihydro-1H-isoquinolin-2-yl}-N-methyl-2-phenyl-acetamide]
clinical efficacy in primary insomnia (humans): showed clinical efficacy | alertness (active wake and locomotion) (rat [4]): decrease alertness | time spent in both REM and NREM sleep (rat [4]): dose-dependently increase | cardiovascular responses to conditioned fear and novelty exposure (rats [5]): attenuated | activity in fear-potentiated startle paradigm (rat [6]): active | learning and memory (rats [7]): intact declarative and non-declarative learning and memory | brain levels of amyloid-beta and Aβ plaque deposition [8]: decreased | antidepressant-like activity (mouse): induce antidepressant-like activity | natural activation induced by orexin A (rats [9]): attenuate | pharmacological activity in nicotine self-administration (rat [10]): displayed pharmacological activity

Structure (SMILES): Cc1ccc(-n2nccn2)c(C(=O)N2CCC[C@@]2(C)c2nc3cc(Br)cc(C)c3[nH]2)c1 [Example 5.19]
IC50 (human orexin-1 receptor): 9 nM | IC50 (human orexin-2 receptor): 20 nM | concentration of the compound in brain [B] [1]: 3880 ng/g | concentration of the compound in plasma [P] [1]: 2095 ng/mL | effect on NREM sleep (Wistar rats): +31% | effect on REM sleep (Wistar rats): +69% | effect on active wake (Wistar rats): −28% | effect on home cage activity (Wistar rats): −46%

Structure (SMILES): COc1ccc(-n2nccn2)c(C(=O)N2CCC[C@@]2(C)c2nc3c(C)c(Cl)ccc3[nH]2)c1 [Example 5.36]
concentration of the compound in brain [B] [1]: 1808 ng/g | concentration of the compound in plasma [P] [1]: 1280 ng/mL | effect on NREM sleep (Wistar rats): +27% | effect on REM sleep (Wistar rats): +53% | effect on active wake (Wistar rats): −24% | effect on home cage activity (Wistar rats): −31%

Structure (SMILES): Cc1nc(C(=O)N2CC[C@H](C)[C@H]2c2nc3cc(C)c(C)cc3[nH]2)c(-c2cccc(Cl)c2)s1 [Ex. 4.10]
IC50 (human orexin-1 receptor): 2 nM | IC50 (human orexin-2 receptor): 833 nM

Structure (SMILES): Cc1nc(C(=O)N2CCCC2c2nc3cc(Cl)c(C)cc3[nH]2)c(-c2ccccc2)s1 (stereo not shown) [Ex. 1.126]
IC50 (human orexin-1 receptor): 18 nM | IC50 (human orexin-2 receptor): 24 nM

Structure (SMILES): Cc1ccc(-n2nccn2)c(C(=O)N2CCC[C@@]2(C)c2nc3cc(C(F)(F)F)c(Cl)cc3[nH]2)c1F [Ex. 5.134]
IC50 (human orexin-1 receptor): 8 nM | IC50 (human orexin-2 receptor): 20 nM

Structure (SMILES): Cc1ccc(-c2ccccc2C(=O)N2CCC[C@@]2(C)c2nc3cc(C)c(C)cc3[nH]2)cc1 [Ex. 5.107]
IC50 (human orexin-1 receptor): 58 nM | IC50 (human orexin-2 receptor): 53 nM

Structure (SMILES): Cc1nc(C(=O)N2CC[C@H](C)[C@H]2c2nc3cc(CO)ccc3[nH]2)c(-c2cccc(Cl)c2)s1 [Ex. 4.27]
IC50 (human orexin-1 receptor): 59 nM | IC50 (human orexin-2 receptor): 5590 nM

Now from value to compound:

IC50 (human orexin-1 receptor): 76 nM | IC50 (human orexin-2 receptor): 10 nM
Structure (SMILES): C=C1C[C@@H](c2nc3cccc(SC)c3[nH]2)N(C(=O)c2cc(C)ccc2-n2nccn2)C1 [Ex. 6.59]

IC50 (human orexin-1 receptor): 14 nM | IC50 (human orexin-2 receptor): 19 nM
Structure (SMILES): Cc1cccc(-c2ccc(C)cc2C(=O)N2CCC[C@@]2(C)c2nc3cc(C)c(C)cc3n2CCF)c1 [Ex. 7.28]

IC50 (human orexin-1 receptor): 67 nM | IC50 (human orexin-2 receptor): 73 nM
Structure (SMILES): C=C1C[C@@H](c2nc3cc(Cl)c(C(F)(F)F)cc3[nH]2)N(C(=O)c2cc(C(F)(F)F)ccc2-n2nccn2)C1 [Ex. 6.184]

IC50 (human orexin-1 receptor): 2 nM | IC50 (human orexin-2 receptor): 2 nM
Structure (SMILES): C=C1CC(c2nc3c(C)c(Cl)ccc3[nH]2)N(C(=O)c2nc(C3CC3)sc2-c2cccc(C)c2)C1 (stereo not shown) [Ex. 6.89]
